Patent US11318103B2, “Treating soft tissue via controlled drug release” (University of Pittsburgh—Of the Commonwealth System of …, priority 2014, dated 2022)

How the values were obtained:
[1] = test system: human osteochondral plugs; assay: T3-induced calcification of human osteochondral plugs (ALP assay, real time-PCR); assay type: cell-based; settings: treatment with triiodothyronine (T3), day 0 versus day 20
Description: FIG. 5 represents the outline for testing of preventing calcification. Experimental design to test the effects of triiodothyronine in inducing calcification and of dorsomorphin in inhibiting calcification in human osteochondral biopsies, an example of which is depicted on the right.
FIG. 6 is two graphs depicting ALP activity. The graphs represent the level of ALP activity in the osteochondral constructs media measured with a colorimetric ALP assay for the samples outlined in the previous figure.
Dorsomorphin has been encapsulated in PLGA-based MPs of micrometer scale dimensions. As the particles degrade, dorsomorphin is released generating a local concentration within the range required to prevent local calcification. To confirm this, human osteochondral plugs (3 mm by 3 mm by 8 mm of a cartilage and bone biopsy-like sample) have been forced to calcify using triiodothyronine (T3) and then exposed to dorsomorphin.

[2] = test system: human chondrocytes; assay: T3-induced hypertrophy of primary chondrocytes; assay type: cell-based; settings: T3 medium 14 or 21 days, maintained after exposure to chondrogenic medium
Description: FIGS. 7A-7F are microphotographs of human chondrocytes. Chondrocytes extracted from human donors have been cultured under a test medium to induce hypertrophy for 14 or 21 days followed by 14 or 7 days of chondrogenic medium, respectively. The test medium was either chondrogenic medium (negative control, no hypertrophy), medium containing triiodothyronine (T3) (hypertrophic), osteogenic medium (hypertrophic).
In autologous chondrocytes implantation (ACI) chondrocytes are implanted in a local cartilage defect. In an in vitro model of ACI based on a small osteochondral unit, as the one we use, a central cartilage defect would be filled with chondrocytes in a hydrogel. To simulate conditions of calcification, the chondrocytes will be pre-cultured in a hypertrophy inducing medium. After seeding, both native cartilage and implanted chondrocytes would be exposed to chondrogenic medium. We have previously shown that T3 induces hypertrophy in MSCs that underwent chondrogenic differentiation. […] Chondrogenic medium and osteogenic medium are used as comparison.

`N[C@@H](Cc1cc(I)c(Oc2ccc(O)c(I)c2)c(I)c1)C(=O)O` [triiodothyronine] was tested, and the “ALP activity in osteochondral constructs media” value [1] was “statistically significant (p<0.05) increase in ALP activity” and the primary chondrocytes hypertrophy [2] was “effective to induce primary chondrocytes hypertrophy”.
